Reference: patent publication US12065654B2, “Plants having increased tolerance to herbicides” (BASF SE, priority 2014, dated 2024)

Columns and labels:
[1] = test system: untransformed control soybean plants (Jake); test: Herbicide field trial; format: in vivo, Glycine max; settings: 7 DAT with 50 g/ha, post-emergence V2-V3, 1% v/v MSO; preliminary assessment, FIG. 7
Procedure: (§1) Transgenic plants expressing heterologous HPPD or HST enzymes are tested for tolerance against HPPD-inhibiting herbicides in field experiments.
(§2) A study can be conducted at a field trial location to evaluate the effect of HPPD herbicides on the phenotypic and phenologic characteristics of a soybean variety containing different transgenes.
(§3) The trial is designed as a randomized complete block with a split-plot treatment design. The trial contains mainplots defined by ‘herbicide treatment’ (combination of herbicide and application rate). The herbicide treatments are applied post-emergence at the V2-V3 plant growth stage. […]
(§4) Each plot consists of a single row 1.2 m long and adjacent plots are spaced 0.76 m apart. […] The zygosity of each plant of transgenic event is determined prior to the application of the herbicide treatment.
(§5) The effect of the HPPD herbicide treatments on phenotypic and phenologic characteristics of plants representing each transgenic event and control variety, including tolerance to each herbicide treatment, is assessed during different vegetative and reproductive stages of plant growth.
(§6) An analysis of variance is conducted on data collected from each subplot and a Student's T test or Tukey's test is calculated where appropriate to compare means. […]

[2] = test system: soybean plants expressing mutated Arabidopsis HPPD; test: Herbicide field trial; format: in vivo, Glycine max; settings: 7 DAT with 50 g/ha, post-emergence V2-V3, 1% v/v MSO; preliminary assessment, FIG. 7
Procedure: as §1, §2, §3, §4, §5, §6

[3] = test system: Arabidopsis overexpression line Picrophilus HPPD; test: Germination assay in 48-well plates; format: in vivo, Arabidopsis thaliana; settings: IC50 transgenic / wildtype, mean of 5 T2 events
Procedure: (§7) Depending on the species, the plants are kept at 10-25° C. or 20-35° C. The test period extends over 3 weeks. During this time, the plants are tended and their response to the individual treatments is evaluated. Herbicide injury evaluations are taken at 2 and 3 weeks after treatment. Plant injury is rated on a scale of 0 to 9, 0 being no injury and 9 being complete death. Tolerance to HPPD-inhibiting, preferably pyrazolone, isoxazole, or triketone derivative herbicides can also be assessed in Arabidopsis. In this case transgenic Arabidopsis thaliana plants are assayed for improved tolerance to HPPD-inhibiting, preferably pyrazolone, isoxazole, or triketone derivative herbicides in 48-well plates. Seeds are surface sterilized by stirring for 5 min in ethanol+water (70+30 by volume), rinsing one time with ethanol+water (70+30 by volume) and two times with a sterile, deionized water. The seeds are resuspended in 0.1% agar dissolved in water (w/v). Four to five seeds per well are plated on solid nutrient medium consisting of half-strength Murashige Skoog nutrient solution, pH 5.8 (Murashige and Skoog (1962) Physiologia Plantarum 15: 473-497). Compounds are dissolved in dimethylsulfoxid (DMSO) and added to the medium prior solidification (final DMSO concentration 0.1%). Multi well plates are incubated in a growth chamber at 22° C., 75% relative humidity and 110 μmol Phot*m−2*s−1 with 14:10 h light:dark photoperiod. Seven to ten days after seeding growth inhibition is evaluated by comparison to wild type plants. Tolerance factor is calculated by dividing the plant growth IC50 value of transgenic plants containing a HPPD and/or HST sequence by that of wildtype plants.

[4] = test system: Arabidopsis overexpression line Hordeum L320Q; test: Germination assay in 48-well plates; format: in vivo, Arabidopsis thaliana; settings: IC50 transgenic / wildtype, mean of 5 T2 events
Procedure: as §7

[5] = test system: Arabidopsis overexpression line Arabidopsis M335H, P336A, E363Q; test: Germination assay in 48-well plates; format: in vivo, Arabidopsis thaliana; settings: IC50 transgenic / wildtype, mean of 5 T2 events
Procedure: as §7

[6] = test system: Arabidopsis overexpression line Arabidopsis F381I; test: Germination assay in 48-well plates; format: in vivo, Arabidopsis thaliana; settings: IC50 transgenic / wildtype, mean of 5 T2 events
Procedure: as §7

[7] = test system: Arabidopsis overexpression line Arabidopsis M335H; test: Germination assay in 48-well plates; format: in vivo, Arabidopsis thaliana; settings: IC50 transgenic / wildtype, mean of 5 T2 events
Procedure: as §7

[8] = test system: Arabidopsis overexpression line Rhodococcus HPPD2; test: Germination assay in 48-well plates; format: in vivo, Arabidopsis thaliana; settings: IC50 transgenic / wildtype, mean of 5 T2 events
Procedure: as §7

[9] = test system: Arabidopsis overexpression line Hordeum L320H, P321A; test: Germination assay in 48-well plates; format: in vivo, Arabidopsis thaliana; settings: IC50 transgenic / wildtype, mean of 5 T2 events
Procedure: as §7

Cc1c(C(=O)c2cnn(C)c2O)ccc(S(C)(=O)=O)c1C1=NOCC1 [Inhibitor 1, [3-(4,5-dihydroisoxazol-3-yl)-2-methyl-4-methylsulfonyl-phenyl]-(5-hydroxy-1-methyl-pyrazol-4-yl)methanone] was tested, and the “field injury (in words)” value [1] was “severe herbicide damage”, the “field injury (in words)” value [2] was “low-moderate injury” and the Tolerance factor [3] was 10. The Tolerance factor [4] was 100, the Tolerance factor [5] was 25 and the Tolerance factor [6] was 90. For the same compound, the Tolerance factor [7] was 10, the Tolerance factor [8] was 32 and the Tolerance factor [9] was 300.
